pEC50: −log10 of the molar value.
Biological target: T1, Human GLP-1 receptor (Homo sapiens, UniProt P43220)
T1 construct: expressed in transfected cells; host or cells: CHO-K1
Assay: Measurement of GLP-1 receptor agonist activity (cAMP assay in hGLP-1R/CHO-K1 cells)
Format: cell-based
Conditions: for Emax: CHO-K1, maximum effect, cAMP with 2 nM human GLP-1 (7-36) = 100%, DMSO only = 0%; for pEC50: cAMP increase in hGLP-1R/CHO-K1 cells, 1 hour at 37° C., with Forskolin
Description: Human GLP-1 receptor stably expressing cells (hGLP-1R/CHO-K1 cells) are cultured in an α-MEM medium (Sigma) containing 10% FBS (Hyclone), 2% GlutaMAX (Gibco), 1% G418 (Nacalai Tesque), and 1% Penicillin-Streptomycin Mixed Solution (Sigma) at 37° C. under 5% CO2 conditions, and recovered by treating a 10 fold diluted 5.0 g/1-trypsin/5.3 mmol/1-EDTA solution (Nacalai Tesque) and cryopreserved.
A DMSO solution containing the compound of the present invention or human GLP-1 (7-36) (Phoenix Pharmaceuticals) is dispensed into a 384-well microplate (Greiner) at 62.5 nL/well, and in addition, 400 μM Forskolin (Nacalai Tesque) is dispensed therein at 7.5 nL/well. Subsequently, the frozen GLP-1 R/CHO-K1 cells are thawed in a thermostatic bath at 37° C., suspended in HBSS buffer (GIBCO) containing 0.1% BSA (Sigma), 20 mM HEPES, 0.1 mM IBMX (Sigma), and 0.2 mM RO20-1724 (Calbiochem) at 2×10^4 cells/mL, and the cell suspension is added at 6 μL/well. The solution was incubated at 37° C. for 1 hour and intracellular cAMP concentration is measured using cAMP Gs dynamic kit (Cisbio) according to the protocol attached to the product. Specifically, a cAMP-d2/Anti-cAMP-Cryptate (1/1) mixture solution is added in a total amount of 6 μL/well, and is incubated at room temperature for 1 hour, and then, time-resolved fluorescence is measured using PHERAstar (BMG Labtech).
Assuming that the cAMP concentration when human GLP-1 (7-36) is dispensed to a final concentration of 2 nM is 100% and the cAMP concentration when only DMSO is dispensed is 0%, the 50% effective concentration (EC50) and the maximum effect (Emax) of the compound of the present invention are calculated using an increase in the cAMP concentration as an index, using TIBCO Spotfire (TIBCO Software). The dilution concentration or the dilution solvent are changed as necessary.
The compounds of the present invention were tested essentially as described above.

T1 sequence (P43220 24-463): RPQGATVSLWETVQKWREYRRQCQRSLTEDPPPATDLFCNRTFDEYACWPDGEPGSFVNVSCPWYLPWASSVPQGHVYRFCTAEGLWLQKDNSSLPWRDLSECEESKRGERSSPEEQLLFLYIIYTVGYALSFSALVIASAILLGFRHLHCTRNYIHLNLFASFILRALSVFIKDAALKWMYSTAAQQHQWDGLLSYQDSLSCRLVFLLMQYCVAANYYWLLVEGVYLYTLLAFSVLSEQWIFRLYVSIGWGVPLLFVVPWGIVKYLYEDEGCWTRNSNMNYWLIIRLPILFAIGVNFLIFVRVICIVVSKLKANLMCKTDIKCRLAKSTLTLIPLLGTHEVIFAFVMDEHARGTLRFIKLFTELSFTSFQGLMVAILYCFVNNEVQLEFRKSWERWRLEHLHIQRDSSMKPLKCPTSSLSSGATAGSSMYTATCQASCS

SMILES	Emax	pEC50
CC(NCc1nc2ccc(C(=O)O)cc2n1C[C@@H]1CCO1)c1nc(OCc2ccc(Cl)cc2F)c(C(F)(F)F)cc1F (mixture of isomers) [Compound I-003]	65.3%	6.45
CC(NCc1nc2ccc(C(=O)O)cc2n1C[C@@H]1CCO1)c1ccc(C(F)(F)F)c(OCc2ccc(Cl)cc2F)n1 (mixture of isomers) [Compound I-004]	60%	5.97
CN(CCc1cnc(OCc2ccc(Cl)cc2F)c(C(F)(F)F)c1)Cc1nc2ccc(C(=O)O)cc2n1C[C@@H]1CCO1 [Compound I-002]	52%	5.64
CC(c1ccc(C(F)(F)F)c(OCc2ccc(Cl)cc2F)n1)N(C)Cc1nc2ccc(C(=O)O)cc2n1C[C@@H]1CCO1 (stereo partly shown) [Compound I-005]	74.7%	7.07
O=C(O)c1ccc2nc(CNCc3ccc(C(F)(F)F)c(OCc4ccc(Cl)cc4F)n3)n(C[C@@H]3CCO3)c2c1 [Compound I-006]	55%	5.55
